Laboratory results published in US12035716B2, “Treatment for seeds disinfection” (VILMORIN & CIE, priority 2013, dated 2024).
Where two headings read alike, the source gives them in different places.

How the values were obtained:
[1] = system: Clavibacter michiganensis subsp. michiganensis; test: Disinfection of tomato seeds naturally infected by CMM; ISF detection method; format: in vivo; conditions: 1% Ca(ClO)2
Excerpt: (§1) Tomato seeds have been obtained from commercial seed lot naturally infected by CMM in the production field. Vacuum treatment was done by vacuum infiltration (VI) method using 4 liters of 1% calcium hypochlorite, as described hereafter. The vacuum was applied while seeds were located in a perforated basket above the disinfectant solution in a closed chamber. A vacuum pressure was applied at maximal reachable vacuum pressure of about 975-985 mbar, followed by submerging the seeds into the solution and releasing the vacuum. Vacuum/de-vacuum cycles were repeated 4 times and at the end, all the seeds sunk. The seeds were collected, rinsed for 5 minutes and dried. Soaking treatment was done in the same solution for one hour after VI treatment or without VI treatment.
Clavibacter michiganensis subsp. michiganensis infection results were obtained by using the “method for the detection of Clavibacter michiganensis subsp. michiganensis on tomato seed” according to the International Seed Federation (ISF) Manual of Seed Health Methods, as can be found in the internet site: http://www.worldseed.org/isf/ishi_vegetable.html.

tomato seeds = test: Germination and transplant tests of treated tomato seeds (AOSA, Example 8); format: in vivo; conditions: 1% Ca(ClO)2; for UNIF (Uniform Transplants) / UT (Useable Transplants): trays in a greenhouse
Excerpt: as §1
The germination tests have been done according to the Association of Official Seed Analysts (AOSA) (http://www.aosaseed.com/).

CGMMV = conditions: Tri Sodium Phosphate 10%, negative control 0.13
Experimental: In this case, cucumber seeds have been obtained from a commercial seed lot, naturally infected by CGMMV in the production field.
The seeds were disinfected by standard method and by vacuum infiltration method. In this case, vacuum is applied at maximal pressure of 975-985 mbar from the beginning. […] The vacuum cycles continue until floating seeds are no longer sinking. The floating seeds are then removed and discarded. This process takes 15-20 minutes.
In this case two chemicals were used.
We also tested the effect of different concentration of Na-Dichloroisocyanurate applied by vacuum infiltration on CGMMV and germination (table II) treatment E is untreated control; treatment F is vacuum infiltration of Na-Dichloroisocyanurate 0.75%; treatment G is vacuum infiltration of Na-Dichloroisocyanurate 1.5% and treatment H is vacuum infiltration of Na-Dich loroisocyanurate 2.0%.
CGMMV was tested by ELISA assay according to method 7-026 of the international rules for seed testing annex to chapter 7: seed health testing methods; International Seed Testing Association, Zurich, Switzerland, 2010.

cucumber seeds = conditions: Tri Sodium Phosphate 10%
Experimental: The germination test was performed according to Annex to chapter 5, International Rules for Seed Testing, International Seed Testing Association, Zurich, Switzerland, 1996.

Acidovorax citrulli = conditions: cited from earlier work; for Eradication of seed borne Acidovorax citrulli inoculum: chemical seed treatment of infected seeds (Dutta et al. 2012)

SMILES: [Ca+2].[O-]Cl.[O-]Cl [Ca(ClO)2, calcium hypochlorite]
- CMM infection results ([1]; 1 hr soak alone): Positive
- CMM infection results ([1]; VI alone): Negative
- CMM infection results ([1]; VI then 1 hr soak): Negative
- EN (Energy, early germination counts on Day 5) (tomato seeds; 1 hr soak alone): 98
- OG (Optimum Germination, counted on Day 14) (tomato seeds; 1 hr soak alone): 98
- UNIF (Uniform Transplants) (tomato seeds; 1 hr soak alone): 92
- UT (Useable Transplants) (tomato seeds; 1 hr soak alone): 95
- EN (Energy, early germination counts on Day 5) (tomato seeds; VI alone): 96
- OG (Optimum Germination, counted on Day 14) (tomato seeds; VI alone): 96
- UNIF (Uniform Transplants) (tomato seeds; VI alone): 91
- UT (Useable Transplants) (tomato seeds; VI alone): 94
- EN (Energy, early germination counts on Day 5) (tomato seeds; VI then 1 hr soak): 99
- OG (Optimum Germination, counted on Day 14) (tomato seeds; VI then 1 hr soak): 99
- UNIF (Uniform Transplants) (tomato seeds; VI then 1 hr soak): 89
- UT (Useable Transplants) (tomato seeds; VI then 1 hr soak): 92

SMILES: O=P([O-])([O-])[O-].[Na+].[Na+].[Na+] [Tri Sodium Phosphate]
- ELISA assay result (rate of extinction at A405) (CGMMV; standard disinfection): 0.34
- ELISA assay result (rate of extinction at A405) (CGMMV; vacuum infiltration): 0.19
- Germination % (cucumber seeds; standard disinfection): 100%
- Germination % (cucumber seeds; vacuum infiltration): 100%

SMILES: Cl [hydrochloric acid]
- Eradication of seed borne Acidovorax citrulli inoculum (Acidovorax citrulli): generally fail to eradicate the bacterium from the infected seeds
- BFB seedling transmission (Acidovorax citrulli; in vivo): significantly reduce BFB seedling transmission

SMILES: CC(=O)OO [peroxyacetic acid]
- Eradication of seed borne Acidovorax citrulli inoculum (Acidovorax citrulli): generally fail to eradicate the bacterium from the infected seeds
- BFB seedling transmission (Acidovorax citrulli; seed treatment (Walcott 2005)): significantly reduce BFB seedling transmission

SMILES: OCl [sodium hypochlorite]
- Eradication of seed borne Acidovorax citrulli inoculum (Acidovorax citrulli): generally fail to eradicate the bacterium from the infected seeds
- BFB seedling transmission (Acidovorax citrulli; seed treatment (Walcott 2005)): significantly reduce BFB seedling transmission
